Experimental data: patent publication EP3900788A1, “NON-PRODUCTIVE ANGIOGENESIS INHIBITOR FOR USE IN THE TREATMENT OF ALZHEIMER'S DISEASE” (Consejo Superior de Investigaciones Científicas (CSIC), priority 2020, dated 2021)

Tested on: APP751SL/+ mice
Experiment: Sorafenib treatment of AD mice: angiogenic cell density and Aβ plaques (Thio-S staining) in brain
Type: in vivo
Settings: 7-month-old APP751SL/+ mice, Sorafenib treatment 1 month vs vehicle

CNC(=O)c1cc(Oc2ccc(NC(=O)Nc3ccc(Cl)c(C(F)(F)F)c3)cc2)ccn1 [Sorafenib]
Aβ plaque load (Thio-S staining of brain): significantly reduced
mean Aβ plaque area (Thio-S staining of brain): significantly reduced
apparition of Iαvβ3+ cells in the brain (Iαvβ3+ cell density) (p < 0.001): strongly reduced
